Columns and labels:
[1] = tested on: SKO; experiment: MTT cytotoxicity assay in SKO MM cell line; conditions: for IC50: Homo sapiens, 72 h, read-out: IC50 (μM) ± S.D.; for % VIABILITY ± S.D.: SKO, daily, 72 hours, vs vehicle
Experimental: (§1) MTT cytotoxicity assay: MM cell lines (4×10^4 cells/ml) were seeded in 96-well plates, in a final volume of 100 μl/well. After 24 hours, CBG, CBC, CBN, CBDV alone and in combination or vehicle were added at different concentrations, for 72 hours. At least six replicates were used for each treatment. At the indicated time point, cell viability was assessed by adding 0.8 mg/ml of 3-[4,5-dimethylthiazol-2-yl]-2,5 diphenyl tetrazolium bromide (MTT) (Sigma-Aldrich) to the media. After 3 hours, the plates were centrifuged, the supernatant was removed, and the pellet was solubilized with 100 μl/well dimethyl sulfoxide (DMSO). The absorbance of the samples against a background control (medium alone) was measured at 570 nm using an ELISA reader microliter plate (BioTek™ Instruments, Winooski, Vt., USA).
(§2) Cells were treated with different doses of CBG, CBC, CBN and CBDV (up to 100 μM) and percentage of cell viability was evaluated by the MTT assay.
(§3) The cannabinoids were administered daily for 72 hours, as in previous experiments at the desired doses. Each combination was evaluated in six wells and in two separate experiments. MTT assay was used to analyze the cell cytotoxicity. The values in the tables are represented as % of cell viability compared to vehicle-treated cells.

[2] = tested on: RPMI; experiment: MTT cytotoxicity assay in RPMI MM cell line; conditions: for IC50: Homo sapiens, 72 h, read-out: IC50 (μM) ± S.D.; for % VIABILITY ± S.D.: RPMI, daily, 72 hours, vs vehicle
Experimental: as §1, §2, §3

[3] = tested on: H2AX levels in MM cell lines; experiment: Western blot analysis for H2AX; type: cell-based, human; conditions: 48 hours, daily; CBG, CBN, CBDV 25 μM, CBC 75 μM
Experimental: 4×10^4 cells were plated in 6 well plates and treated for 48 hours with daily administration of CBG (25 μM; FIG. 17), CBC (75 μM; FIG. 18), CBN (25 μM; FIG. 19) or CBDV (25 μM; FIG. 20). Densitometric analysis was carried out by evaluating two independent experiments by a Chemidoc using the Quantity One software (BioRad, Hercules, USA). H2AX densitometry values were normalized to GAPDH used as loading control and normalized with non-treated cells. Densitometric values shown are the mean±SE of two separate experiments.
Western blot analysis for H2AX: 4×10^4 cells were plated in 6-well plates and treated daily for 48 hours with CBG, CBN or CBDV (25 μM) or CBC (75 μM). Ten micrograms of the myeloma cell line lysates were then separated on a SDS-polyacrylamide gel, transferred onto Hybond-C extra membranes (GE Healthcare), blocked with 5% of Bovine Serum Albumin (BSA) in phosphate buffered saline (PBS)-Tween 20, immunoblotted with rabbit anti-phospho-histone H2AX (Ser139) (1:1000, #9718, Cell Signaling) and rabbit anti-glyceraldehyde-3-phosphate dehydrogenase (GAPDH, 1:3000, #2118, OriGene, Rockville, Md., USA) antibodies incubated overnight and then incubated with their respective HRP-conjugated anti-rabbit (1:2000, Cell Signaling) antibodies for 1 hour. The detection was performed using the LiteAblot™ PLUS or the LiteAblot™ TURBO (EuroClone, Milano, Italy) kits and densitometric analysis was carried out by evaluating three independent experiments by a Chemidoc using the Quantity One software (BioRad, Hercules, USA). H2AX densitometry values were normalized to GAPDH used as loading control and normalized with non-treated cells. Densitometric values shown are the mean±SE of three separate experiments.
Phytocannabinoids induce necrotic cell death in MM cell lines: To evaluate the cytotoxic mechanism induced by the phytocannabinoids, MM cell lines were treated daily with a cytotoxic dose for each phytocannabinoid (CBG: 25 μM; CBC 75 μM; CBN 25 μM; CBDV 25 μM) for 48 hours and then Annexin-V/PI cell positivity was evaluated by FACS analysis. The results evidenced that all of the phytocannabinoids induced necrotic cell death but had different efficacies (FIGS. 5-16). To confirm the necrotic cell death mechanism, MM cell lines were treated as above and DNA damage was evaluated by H2AX (a marker to examine the DNA damage produced and the subsequent repair of the DNA lesion) Western blot analysis and Comet assay (permits the analysis of DNA damage in single cell preparations). The result confirmed the DNA damage induced by the phytocannabinoid analysed. In particular, an increase of H2AX levels were observed by Western blot (FIGS. 17-20) and DNA damage by Comet assay that evidenced structures resembling comets in the treated cell lines (FIGS. 21-24).

[4] = tested on: U266; experiment: MTT cytotoxicity assay in U266 MM cell line; conditions: for IC50: Homo sapiens, U-266, 72 h, read-out: IC50 (μM) ± S.D.; for % VIABILITY ± S.D.: daily, 72 hours, vs vehicle
Experimental: as §1, §2, §3

[5] = in vitro; type: cell-based, human; conditions: human, HuOB, daily, 72 hours, vs vehicle, read-out: % VIABILITY ± S.D.; for viability at 72 h, 12.5 μM: single phytocannabinoid 12.5 μM; for viability at 72 h, 25 μM: single phytocannabinoid 25 μM
Experimental: (§4) At least six replicates were used for each treatment.
(§5) Cell culture: The HuOB, an immortalized human osteoblast cell line derived from femoral head (INS-CI-1005, Inscreeex GmbH, Germany) was grown in HuOB Maintenance Medium (INS-ME-1006).
(§6) IC50 values, relative to daily administration, were obtained. The efficacy in reducing cell viability was generally highest for CBDV, followed by CBN, CBC and CBG.
(§7) Phytocannabinoid combinations in HuOB cell line viability: Before setting up the co-culture experiments with HuOB and MM cell lines, the less cytotoxic doses of phytocannabinoid combinations were evaluated in HuOB. […] The standard deviation of the data reported was <10%. […] Additionally, a triple combination with CBG, CBC and CBN at 12.5 μM for each phytocannabinoid, was performed (Table 9).

[6] = tested on: HuOB cell line; experiment: cells; type: cell-based, human; conditions: for IC50: Homo sapiens, 72 h, read-out: IC50 (μM) ± S.D.
Experimental: as §4, §5, §6, §7

[7] = single phytocannabinoid 12.5 μM
[8] = U266, single phytocannabinoid 12.5 μM
[9] = U266, single phytocannabinoid 25 μM

SMILES	IC50 [1] [µM]	% VIABILITY ± S.D. [1, 7] [%]	% VIABILITY ± S.D. ([1]; single phytocannabinoid 25 μM) [%]	IC50 [2] [µM]	% VIABILITY ± S.D. [2, 7] [%]	% VIABILITY ± S.D. ([2]; single phytocannabinoid 25 μM) [%]	H2AX levels by Western blot, in words [3]	IC50 [4] [µM]	% VIABILITY ± S.D. [4, 8] [%]	% VIABILITY ± S.D. [4, 9] [%]	viability at 72 h, 12.5 μM [5] [%]	viability at 72 h, 25 μM [5] [%]	IC50 [6] [µM]	cytotoxicity in HuOB cell line, in words ([6]; HuOB, 72 hours, daily administration)
CCCCCc1cc(O)c2c(c1)OC(C)(C)c1ccc(C)cc1-2 [CBN, 6,6,9-trimethyl-3-pentylbenzo[c]chromen-1-ol]	28.5 ± 2.2	89.2 ± 5.9	60.6 ± 3.8	23.6 ± 0.9	102.6 ± 7.4	81.1 ± 7.7	increased H2AX levels	26.5 ± 1.8	89.6 ± 6.6	61.1 ± 4.8	117 ± 7.7	81.7 ± 7.7	29 ± 3.07	
C=C(C)[C@@H]1CCC(C)=C[C@H]1c1c(O)cc(CCC)cc1O [CBDV, 2-[(1R,6R)-3-methyl-6-prop-1-en-2-ylcyclohex-2-en-1-yl]-5-propylbenzene-1,3-diol]	26.5 ± 2.1	82.1 ± 5.2	54.6 ± 4.4	21.7 ± 1.1	70.2 ± 5.3	40.2 ± 2.4	increased H2AX levels	26.7 ± 1.3	88.6 ± 7.2	76.2 ± 6.5	72.1 ± 5.8	21.2 ± 1.1	14.3 ± 1	high cytotoxicity
CCCCCc1cc(O)c(C/C=C(\C)CCC=C(C)C)c(O)c1 [CBG, 2-[(2E)-3,7-dimethylocta-2,6-dienyl]-5-pentylbenzene-1,3-diol]	35 ± 1.8	105.4 ± 4.4	84.6 ± 5.5	31.4 ± 1.9	99.3 ± 8.2	69.1 ± 5.5	increased H2AX levels	35.9 ± 2.2	97.4 ± 6.5	87.7 ± 5.8	104 ± 8.2	96.4 ± 7.3	44.8 ± 1.04	
CCCCCc1cc(O)c2c(c1)OC(C)(CCC=C(C)C)C=C2 (centres unmarked) [CBC, 2-methyl-2-(4-methylpent-3-enyl)-7-pentylchromen-5-ol]	69.7 ± 3.5	96.5 ± 6.7	94.3 ± 6.3	49.6 ± 2.1	104.9 ± 3.6	98.3 ± 5.1	increased H2AX levels	78.8 ± 3.4	106.2 ± 3.5	101.2 ± 7.2	100 ± 8.3	99.8 ± 8.1	42.4 ± 1.05	
